Data from patent US20100267561A1, “HERBICIDAL PYRIDAZINONE DERIVATIVES” (priority 2007, published 2010).
Like-named read-outs stand apart in the source and are kept apart here.

Legend:
Assay in all cases: Test B pre-/postemergence plant response
Type in all cases: in vivo
[1] = tested on: Italian ryegrass (Lolium multiflorum); conditions: for pest or weed control at 31 g/ha / pest or weed control at 62 g/ha: Lolium multiflorum, read-out: Plant response rating, Ryegrass, Italian; for pest or weed control at 31 g/ha: 31 g ai/ha; for pest or weed control at 62 g/ha: 62 g ai/ha, 100 complete control
In short: (§1)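 Visual scoring from 0 (no effect) to 100 (complete control) against untreated controls was done 13 to 15 days after greenhouse treatment. Chemicals were formulated in a surfactant-containing non-phytotoxic solvent and applied to soil preemergence or to 1- to 4-leaf (2-18 cm) plants postemergence.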

[2] = tested on: Russian thistle (Salsola iberica); conditions: Preemergence
In short: as §1

[3] = tested on: blackgrass (Alopecurus myosuroides); conditions: for pest or weed control at 31 g/ha: 31 g ai/ha; for pest or weed control at 62 g/ha: 62 g ai/ha, 100 complete control
In short: as §1

[4] = tested on: catchweed bedstraw (Galium aparine); conditions: Preemergence
In short: as §1

[5] = tested on: common ragweed (Ambrosia elation); conditions: for pest or weed control at 31 g/ha / pest or weed control at 62 g/ha: Ambrosia, read-out: Plant response rating, Ragweed; for pest or weed control at 31 g/ha: 31 g ai/ha; for pest or weed control at 62 g/ha: 62 g ai/ha, 100 complete control
In short: as §1

[6] = tested on: eastern black (E.B.) nightshade (Solanum ptycanthum); conditions: Preemergence
In short: as §1

[7] = tested on: giant foxtail (Setaria faberii); conditions: for pest or weed control at 31 g/ha: 31 g ai/ha; for pest or weed control at 62 g/ha: 62 g ai/ha, 100 complete control
In short: as §1

[8] = tested on: goosegrass (Eleusine indica); conditions: for pest or weed control at 31 g/ha / pest or weed control at 62 g/ha: Eleusine indica, read-out: Plant response rating, Goosegrass; for pest or weed control at 31 g/ha: 31 g ai/ha; for pest or weed control at 62 g/ha: 62 g ai/ha, 100 complete control
In short: as §1

[9] = tested on: johnsongrass (Sorghum halepense); conditions: for pest or weed control at 31 g/ha / pest or weed control at 62 g/ha: Sorghum halepense, read-out: Plant response rating, Johnsongrass; for pest or weed control at 31 g/ha: 31 g ai/ha; for pest or weed control at 62 g/ha: 62 g ai/ha, 100 complete control
In short: as §1

[10] = tested on: lambsquarters (Chenopodium album); conditions: for pest or weed control at 31 g/ha / pest or weed control at 62 g/ha: Chenopodium album, read-out: Plant response rating, Lambsquarters; for pest or weed control at 31 g/ha: 31 g ai/ha; for pest or weed control at 62 g/ha: 62 g ai/ha, 100 complete control
In short: as §1

[11] = tested on: pigweed (Amaranthus retroflexus); conditions: for pest or weed control at 31 g/ha / pest or weed control at 62 g/ha: Amaranthus retroflexus, read-out: Plant response rating, Pigweed; for pest or weed control at 31 g/ha: 31 g ai/ha; for pest or weed control at 62 g/ha: 62 g ai/ha, 100 complete control
In short: as §1

soybean (Glycine max) = conditions: for plant injury at 31 g/ha / plant injury at 62 g/ha: Glycine max, read-out: Plant response rating, Soybean; for plant injury at 31 g/ha: 31 g ai/ha; for plant injury at 62 g/ha: 62 g ai/ha, 100 complete control
In short: as §1

[12] = tested on: woolly cupgrass (Eriochloa villosa); conditions: for pest or weed control at 31 g/ha: 31 g ai/ha; for pest or weed control at 62 g/ha: 62 g ai/ha, 100 complete control
In short: as §1

[13] = 8 g ai/ha, postemergence, 0-100 scale
[14] = 16 g ai/ha, postemergence, 0-100 scale
[15] = post-emergence, Postemergence, scale 0 to 100
[16] = post-emergence, Postemergence, scale 0 to 100, 0 no effect
[17] = pre-emergence, Preemergence, scale 0 to 100 (0 no effect, 100 complete control)
[18] = pre-emergence, Preemergence, 0 to 100 scale, 0 no effect
[19] = Preemergence, 8 g ai/ha, scale 0 to 100 (0 no effect, 100 complete control)
[20] = Preemergence, 16 g ai/ha, scale 0 to 100
[21] = 8 g ai/ha, scale 0 to 100 (0 no effect, 100 complete control)

Cc1cc(-c2ccc(Br)cc2)nn1-c1c(OC(=O)C2CC2)cnn(C(=O)C2CC2)c1=O [Compound 80, 5-[3-(4-bromophenyl)-5-methyl-1H-pyrazol-1-yl]-1-(cyclopropylcarbonyl)-1,6-dihydro-6-oxo-4-pyridazinyl cyclopropanecarboxylate]
65: Johnsongrass plant response rating [9, 20] | Cupgrass, Woolly plant response rating [12, 20]
40%: pest or weed control at 31 g/ha [1, 17]
100: Foxtail, Giant plant response rating [7, 20]
20%: plant injury at 62 g/ha (soybean (Glycine max); [16])
95: Foxtail, Giant plant response rating [7, 13]
95%: pest or weed control at 31 g/ha ([3]; Alopecurus myosuroides, post-emergence, Postemergence, scale 0 to 100, read-out: Plant response rating, Blackgrass) | pest or weed control at 31 g/ha [9, 15] | pest or weed control at 16 g/ha ([12]; Eriochloa villosa, post-emergence, Postemergence, 16 g ai/ha, scale 0 to 100, read-out: Plant response rating, Cupgrass, Woolly)
15%: plant injury at 31 g/ha (soybean (Glycine max); [15])
40: Ryegrass, Italian plant response rating [1, 20]
98: Ryegrass, Italian plant response rating [1, 14]
75: Goosegrass plant response rating [8, 14] | Johnsongrass plant response rating [9, 13]
100%: pest or weed control at 31 g/ha [1, 15] | pest or weed control at 62 g/ha [1, 16] | pest or weed control at 62 g/ha [1, 18] | pest or weed control at 62 g/ha ([3]; Alopecurus myosuroides, post-emergence, Postemergence, scale 0 to 100, 0 no effect, read-out: Plant response rating, Blackgrass) | pest or weed control at 31 g/ha ([3]; Alopecurus myosuroides, pre-emergence, Preemergence, scale 0 to 100 (0 no effect, 100 complete control), read-out: Plant response rating, Blackgrass) | pest or weed control at 62 g/ha ([3]; Alopecurus myosuroides, pre-emergence, Preemergence, 0 to 100 scale, 0 no effect, read-out: Plant response rating, Blackgrass) | pest or weed control at 16 g/ha ([7]; Setaria faberi, post-emergence, Postemergence, 16 g ai/ha, scale 0 to 100, read-out: Plant response rating, Foxtail, Giant) | pest or weed control at 31 g/ha ([7]; Setaria faberi, post-emergence, Postemergence, scale 0 to 100, read-out: Plant response rating, Foxtail, Giant) | pest or weed control at 62 g/ha ([7]; Setaria faberi, post-emergence, Postemergence, scale 0 to 100, 0 no effect, read-out: Plant response rating, Foxtail, Giant) | pest or weed control at 31 g/ha ([7]; Setaria faberi, pre-emergence, Preemergence, scale 0 to 100 (0 no effect, 100 complete control), read-out: Plant response rating, Foxtail, Giant) | pest or weed control at 62 g/ha ([7]; Setaria faberi, pre-emergence, Preemergence, 0 to 100 scale, 0 no effect, read-out: Plant response rating, Foxtail, Giant) | pest or weed control at 31 g/ha [8, 17] | pest or weed control at 62 g/ha [8, 18] | pest or weed control at 62 g/ha [9, 16] | pest or weed control at 62 g/ha [9, 18] | pest or weed control at 31 g/ha ([12]; Eriochloa villosa, post-emergence, Postemergence, scale 0 to 100, read-out: Plant response rating, Cupgrass, Woolly) | pest or weed control at 62 g/ha ([12]; Eriochloa villosa, post-emergence, Postemergence, scale 0 to 100, 0 no effect, read-out: Plant response rating, Cupgrass, Woolly) | pest or weed control at 62 g/ha ([12]; Eriochloa villosa, pre-emergence, Preemergence, 0 to 100 scale, 0 no effect, read-out: Plant response rating, Cupgrass, Woolly)
60: Johnsongrass plant response rating [9, 19]
90: Johnsongrass plant response rating [9, 14]
98%: pest or weed control at 62 g/ha [8, 16] | pest or weed control at 31 g/ha ([12]; Eriochloa villosa, pre-emergence, Preemergence, scale 0 to 100 (0 no effect, 100 complete control), read-out: Plant response rating, Cupgrass, Woolly)
80%: pest or weed control at 31 g/ha [9, 17]
55%: pest or weed control at 62 g/ha [11, 18]
20: Goosegrass plant response rating [8, 13] | Goosegrass plant response rating [8, 20]
85%: pest or weed control at 16 g/ha ([3]; Alopecurus myosuroides, post-emergence, Postemergence, 16 g ai/ha, scale 0 to 100, read-out: Plant response rating, Blackgrass) | pest or weed control at 31 g/ha [8, 15]
0: Ryegrass, Italian plant response rating [1, 19] | Russian Thistle plant response rating [2, 21] | Plant response rating, Russian Thistle ([2]; 31 g ai/ha, scale 0 to 100 (0 no effect, 100 complete control)) | Plant response rating, Russian Thistle ([2]; 62 g ai/ha, 0 to 100 scale, 0 no effect, 100 complete control) | Russian Thistle plant response rating ([2]; 16 g ai/ha, scale 0 to 100) | Galium plant response rating [4, 21] | Galium plant response rating ([4]; 16 g ai/ha, scale 0 to 100) | Ragweed plant response rating [5, 13] | Ragweed plant response rating [5, 14] | Ragweed plant response rating [5, 19] | Ragweed plant response rating [5, 20] | Nightshade, E. B. plant response rating [6, 21] | Foxtail, Giant plant response rating [7, 19] | Goosegrass plant response rating [8, 19] | Lambsquarters plant response rating [10, 13] | Lambsquarters plant response rating [10, 14] | Lambsquarters plant response rating [10, 19] | Lambsquarters plant response rating [10, 20] | Pigweed plant response rating [11, 13] | Pigweed plant response rating [11, 14] | Pigweed plant response rating [11, 19] | Pigweed plant response rating [11, 20] | Soybean plant response rating (soybean (Glycine max); [13]) | Soybean plant response rating (soybean (Glycine max); [14]) | Soybean plant response rating (soybean (Glycine max); [19]) | Soybean plant response rating (soybean (Glycine max); [20]) | Cupgrass, Woolly plant response rating [12, 19]
0%: pest or weed control at 31 g/ha ([4]; Galium aparine, pre-emergence, 31 g ai/ha, scale 0 to 100 (0 no effect, 100 complete control), read-out: Plant response rating, Galium) | pest or weed control at 62 g/ha ([4]; Galium aparine, pre-emergence, 62 g ai/ha, 0 to 100 scale, 0 no effect, 100 complete control, read-out: Plant response rating, Galium) | pest or weed control at 31 g/ha [5, 15] | pest or weed control at 62 g/ha [5, 16] | pest or weed control at 31 g/ha [5, 17] | pest or weed control at 62 g/ha [5, 18] | pest or weed control at 31 g/ha ([6]; Solanum, pre-emergence, 31 g ai/ha, scale 0 to 100 (0 no effect, 100 complete control), read-out: Plant response rating, Nightshade, E. B.) | pest or weed control at 62 g/ha ([6]; Solanum, pre-emergence, 62 g ai/ha, 0 to 100 scale, 0 no effect, 100 complete control, read-out: Plant response rating, Nightshade, E. B.) | pest or weed control at 31 g/ha [10, 15] | pest or weed control at 62 g/ha [10, 16] | pest or weed control at 31 g/ha [10, 17] | pest or weed control at 62 g/ha [10, 18] | pest or weed control at 31 g/ha [11, 15] | pest or weed control at 62 g/ha [11, 16] | pest or weed control at 31 g/ha [11, 17] | plant injury at 31 g/ha (soybean (Glycine max); [17]) | plant injury at 62 g/ha (soybean (Glycine max); [18])
80: Ryegrass, Italian plant response rating [1, 13] | Blackgrass plant response rating [3, 13] | Cupgrass, Woolly plant response rating [12, 13]
70: Blackgrass plant response rating [3, 19] | Blackgrass plant response rating [3, 20]
